Test results as given in patent publication US8952024B2, “Herbicidal pyrimidone derivatives” (E I du Pont de Nemours and Company, priority 2009, dated 2015).
Like-named read-outs stand apart in the source and are kept apart here.

Legend:
Assay type in all cases: in vivo
[1] = system: morningglory (Ipomoea spp.); assay: Test A pre-/postemergence plant response; details: Ipomoea, 240 h; for pest or weed control at 125 g/ha: 125 g ai/ha; for pest or weed control at 500 g/ha: 500 g ai/ha
Outline: (§1)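 Visual injury rating on a 0–100 scale (0 = no effect, 100 = complete control) was made versus untreated controls after about ten days in the greenhouse. Compounds, formulated in a non-phytotoxic solvent mix containing surfactant, were sprayed preemergence onto loam/sand soil and postemergence onto one- to two-leaf plants.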

[2] = system: corn (Zea mays); assay: Test A pre-/postemergence plant response; details: Zea mays, 240 h; for Corn plant response rating (crop injury, 0 = no effect, 100 = complete kill) at 500 g/ha: 500 g ai/ha
Outline: as §1

[3] = system: velvetleaf (Abutilon theophrasti); assay: Test A pre-/postemergence plant response; details: Abutilon theophrasti, 240 h; for pest or weed control at 125 g/ha: 125 g ai/ha; for pest or weed control at 500 g/ha: 500 g ai/ha
Outline: as §1

[4] = system: giant foxtail (Setaria faberii); assay: Test A pre-/postemergence plant response; details: Setaria faberi, 240 h; for pest or weed control at 125 g/ha: 125 g ai/ha; for pest or weed control at 500 g/ha: 500 g ai/ha
Outline: as §1

[5] = system: barnyardgrass (Echinochloa crus-galli); assay: Test A pre-/postemergence plant response; details: Echinochloa crus-galli, 240 h; for pest or weed control at 125 g/ha: 125 g ai/ha; for pest or weed control at 500 g/ha: 500 g ai/ha
Outline: as §1

[6] = system: pigweed (Amaranthus retroflexus); assay: Test A pre-/postemergence plant response; details: Amaranthus retroflexus, 240 h; for pest or weed control at 125 g/ha: 125 g ai/ha; for pest or weed control at 500 g/ha: 500 g ai/ha
Outline: as §1

[7] = system: large crabgrass (Digitaria sanguinalis); assay: Test A pre-/postemergence plant response; details: Digitaria sanguinalis, 240 h; for pest or weed control at 125 g/ha: 125 g ai/ha; for pest or weed control at 500 g/ha: 500 g ai/ha
Outline: as §1

[8] = system: wheat (Triticum aestivum); assay: Test A pre-/postemergence plant response; details: Triticum aestivum, 240 h; for plant injury at 125 g/ha: 125 g ai/ha; for plant injury at 500 g/ha: 500 g ai/ha
Outline: as §1

[9] = system: winter barley (Hordeum vulgare); assay: Test B postemergence plant response; details: Hordeum vulgare, post-emergence, Postemergence, read-out: Plant response rating, Barley
Outline: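 Visual ratings from 0 (no effect) to 100 (complete control), made against controls 13–15 days after treatment, kept in a greenhouse. Compounds were applied postemergence to potted plants at the 1- to 4-leaf stage (2–18 cm).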

[10] = system: ducksalad (Heteranthera limosa); assay: Test B flooded paddy test; details: Heteranthera limosa, 360 h
Outline: (§2)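 Rice, umbrella sedge, ducksalad and barnyardgrass were grown to the 2-leaf stage, flooded to 3 cm, and compound was applied directly to the paddy water, with that depth kept throughout. After 13 to 15 days in the greenhouse, plants were visually rated against controls on a 0 (no effect) to 100 (complete control) scale.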

[11] = system: rice (Oryza sativa); assay: Test B flooded paddy test; details: Oryza sativa
Outline: as §2

[12] = system: barnyardgrass (Echinochloa crus-galli); assay: Test B flooded paddy test; details: Echinochloa crus-galli, 360 h
Outline: as §2

[13] = system: umbrella sedge (Cyperus difformis); assay: Test B flooded paddy test; details: Cyperus difformis, 360 h
Outline: as §2

SMILES: O=C1CCCC(O)=C1C(=O)c1cnc(-c2ccccc2)n(-c2ccccc2)c1=O [Compound 2, 5-[(2-hydroxy-6-oxo-1-cyclohexen-1-yl)carbonyl]-2,3-diphenyl-4(3H)-pyrimidinone]
- pest or weed control at 125 g/ha ([1]; post-emergence, Postemergence, visual injury, 0 to 100 scale (0 no effect, 100 complete control), approx. ten days, read-out: Morningglory plant response rating): 90%
- pest or weed control at 500 g/ha ([1]; post-emergence, Postemergence, 0 to 100 scale, 0 = no effect, 100 = complete control, approx. ten days, read-out: Plant response rating, Morningglory): 100%
- pest or weed control at 125 g/ha ([1]; pre-emergence, Preemergence, 0 to 100 scale, 0 = no effect, 100 = complete control, read-out: Plant response rating, Morningglory): 60%
- pest or weed control at 500 g/ha ([1]; pre-emergence, Preemergence, visual injury, 0 to 100 scale (0 no effect, 100 complete control), approx. ten days, read-out: Plant response rating, Morningglory): 90%
- plant injury at 125 g/ha ([2]; post-emergence, Postemergence, 125 g ai/ha, visual injury, 0 to 100 scale (0 no effect, 100 complete control), approx. ten days, read-out: Corn plant response rating): 30%
- Corn plant response rating (crop injury, 0 = no effect, 100 = complete kill) at 500 g/ha ([2]; post-emergence, Postemergence, 0 to 100 scale, 0 = no effect, 100 = complete control, approx. ten days): 90%
- Corn plant response rating (crop injury, 0 = no effect, 100 = complete kill) at 125 g/ha ([2]; pre-emergence, Preemergence, 125 g ai/ha, 0 to 100 scale, 0 = no effect, 100 = complete control): 0%
- Corn plant response rating (crop injury, 0 = no effect, 100 = complete kill) at 500 g/ha ([2]; pre-emergence, Preemergence, visual injury, 0 to 100 scale (0 no effect, 100 complete control), approx. ten days): 0%
- pest or weed control at 125 g/ha ([3]; post-emergence, Postemergence, visual injury, 0 to 100 scale (0 no effect, 100 complete control), approx. ten days, read-out: Velvetleaf plant response rating): 100%
- pest or weed control at 500 g/ha ([3]; post-emergence, Postemergence, 0 to 100 scale, 0 = no effect, 100 = complete control, approx. ten days, read-out: Plant response rating, Velvetleaf): 100%
- pest or weed control at 125 g/ha ([3]; pre-emergence, Preemergence, 0 to 100 scale, 0 = no effect, 100 = complete control, read-out: Plant response rating, Velvetleaf): 60%
- pest or weed control at 500 g/ha ([3]; pre-emergence, Preemergence, visual injury, 0 to 100 scale (0 no effect, 100 complete control), approx. ten days, read-out: Plant response rating, Velvetleaf): 100%
- pest or weed control at 125 g/ha ([4]; post-emergence, Postemergence, visual injury, 0 to 100 scale (0 no effect, 100 complete control), approx. ten days, read-out: Foxtail, Giant plant response rating): 90%
- pest or weed control at 500 g/ha ([4]; post-emergence, Postemergence, 0 to 100 scale, 0 = no effect, 100 = complete control, approx. ten days, read-out: Plant response rating, Foxtail, Giant): 100%
- pest or weed control at 125 g/ha ([4]; pre-emergence, Preemergence, 0 to 100 scale, 0 = no effect, 100 = complete control, read-out: Plant response rating, Foxtail, Giant): 50%
- pest or weed control at 500 g/ha ([4]; pre-emergence, Preemergence, visual injury, 0 to 100 scale (0 no effect, 100 complete control), approx. ten days, read-out: Plant response rating, Foxtail, Giant): 90%
- pest or weed control at 125 g/ha ([5]; post-emergence, Postemergence, visual injury, 0 to 100 scale (0 no effect, 100 complete control), approx. ten days, read-out: Barnyardgrass plant response rating): 100%
- pest or weed control at 500 g/ha ([5]; post-emergence, Postemergence, 0 to 100 scale, 0 = no effect, 100 = complete control, approx. ten days, read-out: Plant response rating, Barnyardgrass): 100%
- pest or weed control at 125 g/ha ([5]; pre-emergence, Preemergence, 0 to 100 scale, 0 = no effect, 100 = complete control, read-out: Plant response rating, Barnyardgrass): 10%
- pest or weed control at 500 g/ha ([5]; pre-emergence, Preemergence, visual injury, 0 to 100 scale (0 no effect, 100 complete control), approx. ten days, read-out: Plant response rating, Barnyardgrass): 70%
- pest or weed control at 125 g/ha ([6]; post-emergence, Postemergence, visual injury, 0 to 100 scale (0 no effect, 100 complete control), approx. ten days, read-out: Pigweed plant response rating): 100%
- pest or weed control at 500 g/ha ([6]; post-emergence, Postemergence, 0 to 100 scale, 0 = no effect, 100 = complete control, approx. ten days, read-out: Plant response rating, Pigweed): 100%
- pest or weed control at 125 g/ha ([6]; pre-emergence, Preemergence, 0 to 100 scale, 0 = no effect, 100 = complete control, read-out: Plant response rating, Pigweed): 100%
- pest or weed control at 500 g/ha ([6]; pre-emergence, Preemergence, visual injury, 0 to 100 scale (0 no effect, 100 complete control), approx. ten days, read-out: Plant response rating, Pigweed): 100%
- pest or weed control at 125 g/ha ([7]; post-emergence, Postemergence, visual injury, 0 to 100 scale (0 no effect, 100 complete control), approx. ten days, read-out: Crabgrass, Large plant response rating): 90%
- pest or weed control at 500 g/ha ([7]; post-emergence, Postemergence, 0 to 100 scale, 0 = no effect, 100 = complete control, approx. ten days, read-out: Plant response rating, Crabgrass, Large): 100%
- pest or weed control at 125 g/ha ([7]; pre-emergence, Preemergence, 0 to 100 scale, 0 = no effect, 100 = complete control, read-out: Plant response rating, Crabgrass, Large): 80%
- pest or weed control at 500 g/ha ([7]; pre-emergence, Preemergence, visual injury, 0 to 100 scale (0 no effect, 100 complete control), approx. ten days, read-out: Plant response rating, Crabgrass, Large): 100%
- plant injury at 125 g/ha ([8]; post-emergence, Postemergence, visual injury, 0 to 100 scale (0 no effect, 100 complete control), approx. ten days, read-out: Wheat plant response rating): 0%
- plant injury at 500 g/ha ([8]; post-emergence, Postemergence, 0 to 100 scale, 0 = no effect, 100 = complete control, approx. ten days, read-out: Plant response rating, Wheat): 20%
- plant injury at 125 g/ha ([8]; pre-emergence, Preemergence, 0 to 100 scale, 0 = no effect, 100 = complete control, read-out: Plant response rating, Wheat): 0%
- plant injury at 500 g/ha ([8]; pre-emergence, Preemergence, visual injury, 0 to 100 scale (0 no effect, 100 complete control), approx. ten days, read-out: Plant response rating, Wheat): 0%
- plant injury at 16 g/ha ([9]; 16 g ai/ha, 0 to 100 scale): 0%
- plant injury at 31 g/ha ([9]; 31 g ai/ha, scale 0 to 100 (0 no effect, 100 complete control)): 10%
- plant injury at 62 g/ha ([9]; 62 g ai/ha, scale 0 (no effect) to 100 (complete control), 13 to 15 days): 20%
- plant injury at 125 g/ha ([9]; 125 g ai/ha, scale 0 to 100 (0 no effect, 100 complete control), 13 to 15 days): 30%
- pest or weed control at 250 g/ha ([10]; 250 g ai/ha, flooded paddy test, visual rating on 0 to 100 scale (0 no effect, 100 complete control) after 13 to 15 days, read-out: Plant response rating, Flood, Ducksalad): 78%
- pest or weed control at 31 g/ha ([10]; Flood (flooded paddy test), 31 g ai/ha, scale of 0 to 100 where 0 is no effect and 100 is complete control, 13 to 15 days, read-out: Plant response rating, Ducksalad): 15%
- pest or weed control at 62 g/ha ([10]; Flood (flooded paddy test), 62 g ai/ha, scale 0 to 100, 0 is no effect, 100 is complete control, 13 to 15 days, read-out: Plant response rating, Ducksalad): 40%
- pest or weed control at 125 g/ha ([10]; Flood (flooded paddy test), 125 g ai/ha, scale 0 to 100, 0 is no effect, 100 is complete control, 13 to 15 days, read-out: Plant response rating, Ducksalad): 58%
- plant injury at 250 g/ha ([11]; 250 g ai/ha, flooded paddy test, visual rating on 0 to 100 scale (0 no effect, 100 complete control) after 13 to 15 days, read-out: Plant response rating, Flood, Rice): 8%
- plant injury at 31 g/ha ([11]; Flood (flooded paddy test), 31 g ai/ha, scale of 0 to 100 where 0 is no effect and 100 is complete control, 13 to 15 days, read-out: Plant response rating, Rice): 0%
- plant injury at 62 g/ha ([11]; Flood (flooded paddy test), 62 g ai/ha, scale 0 to 100, 0 is no effect, 100 is complete control, 13 to 15 days, read-out: Plant response rating, Rice): 0%
- plant injury at 125 g/ha ([11]; Flood (flooded paddy test), 125 g ai/ha, scale 0 to 100, 0 is no effect, 100 is complete control, 13 to 15 days, read-out: Plant response rating, Rice): 0%
- pest or weed control at 250 g/ha ([12]; 250 g ai/ha, flooded paddy test, visual rating on 0 to 100 scale (0 no effect, 100 complete control) after 13 to 15 days, read-out: Plant response rating, Flood, Barnyardgrass): 0%
- pest or weed control at 31 g/ha ([12]; Flood (flooded paddy test), 31 g ai/ha, scale of 0 to 100 where 0 is no effect and 100 is complete control, 13 to 15 days, read-out: Plant response rating, Barnyardgrass): 0%
- pest or weed control at 62 g/ha ([12]; Flood (flooded paddy test), 62 g ai/ha, scale 0 to 100, 0 is no effect, 100 is complete control, 13 to 15 days, read-out: Plant response rating, Barnyardgrass): 0%
- pest or weed control at 125 g/ha ([12]; Flood (flooded paddy test), 125 g ai/ha, scale 0 to 100, 0 is no effect, 100 is complete control, 13 to 15 days, read-out: Plant response rating, Barnyardgrass): 0%
- pest or weed control at 250 g/ha ([13]; 250 g ai/ha, flooded paddy test, visual rating on 0 to 100 scale (0 no effect, 100 complete control) after 13 to 15 days, read-out: Plant response rating, Flood, Sedge, Umbrella): 75%
- pest or weed control at 31 g/ha ([13]; Flood (flooded paddy test), 31 g ai/ha, scale of 0 to 100 where 0 is no effect and 100 is complete control, 13 to 15 days, read-out: Plant response rating, Sedge, Umbrella): 0%
- pest or weed control at 62 g/ha ([13]; Flood (flooded paddy test), 62 g ai/ha, scale 0 to 100, 0 is no effect, 100 is complete control, 13 to 15 days, read-out: Plant response rating, Sedge, Umbrella): 0%
- pest or weed control at 125 g/ha ([13]; Flood (flooded paddy test), 125 g ai/ha, scale 0 to 100, 0 is no effect, 100 is complete control, 13 to 15 days, read-out: Plant response rating, Sedge, Umbrella): 45%
